Tests used:
[1] = tested on: peripheral T-cell lymphoma (PTCL); test: Randomized Phase 2 dose finding study of Pralatrexate-COP versus CHOP; design: species or system human; settings: in vivo, iv
Description: This experiment was performed to identify the suitable dose of Pralatrexate that would be optimal in polychemotherapy for the next study (phase-III) based on safety and ORR (objective response rate) at 3 months. Initially, a lower dose of 20 mg/m^2 was compared to 30 mg/m^2 combined with COP. Therefore, these two dose levels were assigned randomly to 20 patients in addition to COP (Pralatrexate-COP). […] Dose effect on polyglutamate-Pralatrexate, DNA hypomethylation or H3-acetylation was evaluated in this part of the study as a surrogate for PD (pharmacodynamics) drug exposure. […] Further objective of dose finding study was also to evaluate the safety profiles for patients with newly diagnosed PTCL treated with Pralatrexate-COP compared to CHOP alone.
In the dose finding study, each investigational arm was having two dose levels which was compared with CHOP as reference. Treatment was randomized in three arms, Group 1a (Pralatrexate-COP) Pralatrexate 20 mg/m^2, Group 1b Pralatrexate 30 mg/m^2, all added to standard CHOP or COP respectively, and Group 2 for CHOP alone. […]

[2] = cumulative dose of doxorubicin >200 mg/m^2, CHOP regimen, aggressive Non-Hodgkin Lymphoma patients; cited from earlier work
PTCL = settings: anthracycline-based regimens; cited from earlier work

Compound	effect in combination with COP [1]	patients with cardiac events [2]	survival impact of inclusion in a polychemotherapy regimen (PTCL)
C#CCC(Cc1cnc2nc(N)nc(N)c2n1)c1ccc(C(=O)N[C@@H](CCC(=O)O)C(=O)O)cc1 (mixture of isomers) [Pralatrexate]	synergistic effect		
COc1cccc2c1C(=O)c1c(O)c3c(c(O)c1C2=O)C[C@@](O)(C(=O)CO)C[C@@H]3O[C@H]1C[C@H](N)[C@H](O)[C@H](C)O1 [Doxorubicin]		27%	not associated with a survival improvement

From patent publication US20260130919A1 (priority 2023, published 2026)
